Laboratory results: US20230107642A1 (Erasca, Inc., priority 2020, published 2023)

These molecules were tested against T1, K-Ras G12C (Homo sapiens, UniProt P01116, G12C) (assay: CAF assay (% CAF; method in Example 7, not in this part)). Settings: 10 uM compound, 1 h incubation.
T1 construct: This protein contained 188 amino acids in total, including an N-terminal 6-Histidine tag; made in house; host or cells: E. coli BL21
Assay type: binding

Structure (SMILES) | % CAF @ 10 uM, 1h [%]
C=CC(=O)N1CCN(c2nc(=O)n3c4c(c(-c5ccc(F)cc5)c(Cl)cc24)SC[C@H](OC)C3)CC1 [Example 540, (R)-8-(4-acryloylpiperazin-1-yl)-10-chloro-11-(4-fluorophenyl)-3-methoxy-3,4-dihydro-2H,6H-[1,4]thiazepino[2,3,4-ij]quinazolin-6-one] | 98
C=CC(=O)N1CCN(c2nc(=O)n3c4c(c(-c5ccc(F)cc5)c(Cl)cc24)SC[C@@H]3CN2CCN(CC)CC2)[C@@H](C)C1 [Example 410, (S)-7-((S)-4-acryloyl-2-methylpiperazin-1-yl)-9-chloro-3((4-ethylpiperazin-1-yl)methyl)-10-(4-fluorophenyl)-2H-[1,4]thiazino[2,3,4-ij]quinazolin-5(3H)-one] | 83.9
C=CC(=O)N1C2CN(c3nc(=O)n4c5c(c(-c6ccc(F)cc6F)c(C(F)(F)F)cc35)SCC4)CC1CC1(COC1)C2 [Example 417, 7-(9-acryloyl-7,9-diazaspiro[bicyclo[3.3.1]nonane-3,3′-oxetan]-7-yl)-10-(2,4-difluorophenyl)-9-(trifluoromethyl)-2,3-dihydro-5H-[1,4]thiazino[2,3,4-ij]quinazolin-5-one] | 2
C=CC(=O)N1C[C@H](C)N(c2nc(=O)n3c4c(c(-c5ccc(F)cc5)c(Cl)cc24)SC[C@@H]3COC)C[C@H]1C [Example 573, (S)-7-((2S,5R)-4-acryloyl-2,5-dimethylpiperazin-1-yl)-9-chloro-10-(4-fluorophenyl)-3-(methoxymethyl)-2H-[1,4]thiazino[2,3,4-ij]quinazolin-5(3H)-one] | 76.4
C=CC(=O)N1CCN(c2nc(=O)n3c4c(c(-c5cc(F)c(F)cc5F)c(Cl)cc24)SC[C@@H]3CN2CCN(C3CC3)CC2)[C@@H](C)C1 [Example 520, (3S)-7-((S)-4-acryloyl-2-methylpiperazin-1-yl)-9-chloro-3-((4-cyclopropylpiperazin-1-yl)methyl)-10-(2,4,5-trifluorophenyl)-2H-[1,4]thiazino[2,3,4-ij]quinazolin-5(3H)-one] | 51.1
C=CC(=O)N1CCN(c2nc(=O)n3c4c(c(-c5cc(Cl)c(F)cc5F)c(Cl)cc24)SC[C@H](OC)C3)CC1 [Example 538, (3R)-8-(4-acryloylpiperazin-1-yl)-10-chloro-11-(5-chloro-2,4-difluorophenyl)-3-methoxy-3,4-dihydro-2H,6H-[1,4]thiazepino[2,3,4-ij]quinazolin-6-one] | 97
C=CC(=O)N1C[C@H](C)N(c2nc(=O)n3c4c(c(-c5cc(Cl)c(F)cc5F)c(Cl)cc24)SC[C@@H]3CN2CCN(CC(F)F)CC2)C[C@H]1C [Example 495, (3S)-7-((2S,5R)-4-acryloyl-2,5-dimethylpiperazin-1-yl)-9-chloro-10-(5-chloro-2,4-difluorophenyl)-3-((4-(2,2-difluoroethyl)piperazin-1-yl)methyl)-2H-[1,4]thiazino[2,3,4-ij]quinazolin-5(3H)-one] | 50.8
C=CC(=O)N1C[C@H](C)N(c2nc(=O)n3c4c(c(-c5cc(Cl)c(F)cc5F)c(Cl)cc24)SC[C@@H]3CN2CCC3(CC2)COC3)C[C@H]1C [Example 449, (3S)-3-(2-oxa-7-azaspiro[3.5]nonan-7-ylmethyl)-7-((2S,5R)-4-acryloyl-2,5-dimethylpiperazin-1-yl)-9-chloro-10-(5-chloro-2,4-difluorophenyl)-2H-[1,4]thiazino[2,3,4-ij]quinazolin-5(3H)-one] | 51.6
C=CC(=O)N1C[C@H](C)N(c2nc(=O)n3c4c(c(-c5cc(Cl)c(F)cc5F)c(Cl)cc24)SC[C@@H]3COC)C[C@H]1C [Example 496, (3S)-7-((2S,5R)-4-acryloyl-2,5-dimethylpiperazin-1-yl)-9-chloro-10-(5-chloro-2,4-difluorophenyl)-3-(methoxymethyl)-2H-[1,4]thiazino[2,3,4-ij]quinazolin-5(3H)-one] | 65.3
C=CC(=O)N1CCN(c2nc(=O)n3c4c(c(-c5ccc(F)c6cccnc56)c(Cl)cc24)SC[C@@H]3COC)[C@@H](C)C1 [Example 474, (3S)-7-((S)-4-acryloyl-2-methylpiperazin-1-yl)-9-chloro-10-(5-fluoroquinolin-8-yl)-3-(methoxymethyl)-2,3-dihydro-5H-[1,4]thiazino[2,3,4-ij]quinazolin-5-one] | 73.3
C=CC(=O)N1C[C@H](C)N(c2nc(=O)n3c4c(c(-c5ccc(F)cc5F)c(C(F)(F)F)cc24)SCC2(COC2)C3)C[C@H]1C [Example 588, 8′-((2S,5R)-4-Acryloyl-2,5-dimethylpiperazin-1-yl)-11′-(2,4-difluorophenyl)-10′-(trifluoromethyl)-2′H,4′H,6′H-spiro[oxetane-3,3′-[1,4]thiazepino[2,3,4-ij]quinazolin]-6′-one] | 95.9

Same assay, conditions: 10 uM, 1 h; Table 3

Structure (SMILES) | % CAF @ 10 uM, 1h [%]
C=CC(=O)N1CCN(c2nc(=O)n3c4c(c(-c5ccc(F)cc5F)c(Cl)cc24)SCC3)C2CS(=O)(=O)CC21 (centres unmarked) [Example 131, 7-(4-acryloyl-6,6-dioxidohexahydrothieno[3,4-b]pyrazin-1(2H)-yl)-9-chloro-10-(2,4-difluorophenyl)-2,3-dihydro-5H-[1,4]thiazino[2,3,4-ij]quinazolin-5-one] | 82.2
C=CC(=O)N1CCN(c2nc(=O)n3c4c(c(-c5ccc(F)c(C(=O)NC)c5)c(Cl)cc24)SCC3)[C@@H](C)C1 [Example 85, (S)-5-(7-(4-acryloyl-2-methylpiperazin-1-yl)-9-chloro-5-oxo-2,3-dihydro-5H-[1,4]thiazino[2,3,4-ij]quinazolin-10-yl)-2-fluoro-N-methylbenzamide] | 60.3
C=CC(=O)N1CCN(c2nc(=O)n3c4c(c(-c5ccc(F)cc5F)c(Cl)cc24)SCC3)[C@@H](CC#N)C1 [Example 104, 2-((2S)-4-acryloyl-1-(9-chloro-10-(2,4-difluorophenyl)-5-oxo-2,3-dihydro-5H-[1,4]thiazino[2,3,4-ij]quinazolin-7-yl)piperazin-2-yl)acetonitrile] | 94.4
C[C@H]1CN(C(=O)/C=C/C(F)(F)F)CCN1c1nc(=O)n2c3c(c(-c4ccc(Cl)c(F)c4)c(Cl)cc13)SCC2 [Example 79, (S,E)-9-chloro-10-(4-chloro-3-fluorophenyl)-7-(2-methyl-4-(4,4,4-trifluorobut-2-enoyl)piperazin-1-yl)-2,3-dihydro-5H-[1,4]thiazino[2,3,4-ij]quinazolin-5-one] | 92
C=CC(=O)N1CCN(c2nc(=O)n3c4c(c(-c5ccc(F)cc5)c(Cl)cc24)SC[C@H]3CC2CCN(CC(F)F)CC2)[C@@H](C)C1 [Example 68, (R)-7-((S)-4-acryloyl-2-methylpiperazin-1-yl)-9-chloro-3-((1-(2,2-difluoroethyl)piperidin-4-yl)methyl)-10-(4-fluorophenyl)-2,3-dihydro-5H-[1,4]thiazino[2,3,4-ij]quinazolin-5-one] | 87
C=CC(=O)N1CCN(c2nc(=O)n3c4c(c(-c5ccc(F)cc5F)c(Cl)cc24)SC[C@H]3CCCN2C[C@@H]3C[C@H]2CO3)[C@@H](C)C1 [Example 97, (3R)-3-(3-((1S,4S)-2-oxa-5-azabicyclo[2.2.1]heptan-5-yl)propyl)-7-((S)-4-acryloyl-2-methylpiperazin-1-yl)-9-chloro-10-(2,4-difluorophenyl)-2,3-dihydro-5H-[1,4]thiazino[2,3,4-ij]quinazolin-5-one] | 96.5
C=CC(=O)N1CCN(c2nc(=O)n3c4c(c(-c5ccc(Cl)c(F)c5)c(Cl)cc24)SCC3)[C@@H](C)C1 [Example 89, (S)-7-(4-acryloyl-2-methylpiperazin-1-yl)-9-chloro-10-(4-chloro-3-fluorophenyl)-2,3-dihydro-5H-[1,4]thiazino[2,3,4-ij]quinazolin-5-one] | 94.5
C=CC(=O)N1CCN(c2nc(=O)n3c4c(c(-c5cc(Cl)ccc5Cl)c(Cl)cc24)SCC3)[C@@H](C)C1 [Example 171, 7-((S)-4-acryloyl-2-methylpiperazin-1-yl)-9-chloro-10-(2,5-dichlorophenyl)-2,3-dihydro-5H-[1,4]thiazino[2,3,4-ij]quinazolin-5-one] | 48.9
C=CC(=O)N1CCN(c2nc(=O)n3c4c(c(-c5ccc(F)cc5F)c(Cl)cc24)SCC3CN2CCN(C)CC2)[C@@H](C)C1 (stereo partly drawn) [Example 126, 7-((S)-4-acryloyl-2-methylpiperazin-1-yl)-9-chloro-10-(2,4-difluorophenyl)-3-((4-methylpiperazin-1-yl)methyl)-2,3-dihydro-5H-[1,4]thiazino[2,3,4-ij]quinazolin-5-one] | 33.1
C=CC(=O)N1C2CN(c3nc(=O)n4c5c(c(-c6ccc(F)cc6F)c(Cl)cc35)SCC4)CC1CN(S(C)(=O)=O)C2 [Example 95, 7-(9-acryloyl-7-(methylsulfonyl)-3,7,9-triazabicyclo[3.3.1]nonan-3-yl)-9-chloro-10-(2,4-difluorophenyl)-2,3-dihydro-5H-[1,4]thiazino[2,3,4-ij]quinazolin-5-one] | 70.5
C=CC(=O)N1CCN(c2nc(=O)n3c4c(c(-c5ccc(F)cc5F)c(Cl)cc24)SCC3)C[C@H]1C [Example 139, 7-((R)-4-acryloyl-3-methylpiperazin-1-yl)-9-chloro-10-(2,4-difluorophenyl)-2,3-dihydro-5H-[1,4]thiazino[2,3,4-ij]quinazolin-5-one] | 94.8

Same assay, conditions: 10 μM, 1 h; Table 4

Structure (SMILES) | % CAF @ 10 μM, 1 h [%]
C=CC(=O)N1CCN(c2nc(=O)n3c4c(c(-c5ccc(F)cc5F)c(C(F)(F)F)cc24)SC[C@@H]3CN2CCN(CC(F)F)CC2)[C@@H](C)C1 [Example 19, (3S)-7-((S)-4-acryloyl-2-methylpiperazin-1-yl)-3-((4-(2,2-difluoroethyl)piperazin-1-yl)methyl)-10-(2,4-difluorophenyl)-9-(trifluoromethyl)-2H-[1,4]thiazino[2,3,4-ij]quinazolin-5(3H)-one] | 96
